Columns and labels:
D1 = target: T1, D1 (Homo sapiens, UniProt P21728); experiment: FLIPR functional screen; type: cell-based; conditions: antagonist mode
T1 construct: Millipore

V1B = target: T2, V1B (Homo sapiens, UniProt P47901); experiment: FLIPR functional screen; type: cell-based; conditions: antagonist mode
T2 construct: Millipore

DP = target: T3, DP (Homo sapiens, UniProt Q13258); experiment: FLIPR functional screen; type: cell-based; conditions: antagonist mode
T3 construct: Millipore

CCK2 = target: T4, CCK2 (Homo sapiens, UniProt P32239); experiment: FLIPR functional screen; type: cell-based; conditions: antagonist mode
T4 construct: Millipore

GPR40 = target: T5, GPR40 (Homo sapiens, UniProt O14842); experiment: FLIPR functional screen; type: cell-based; conditions: antagonist mode
T5 construct: Millipore

TRH = target: T6, TRH (Homo sapiens, UniProt P34981); experiment: FLIPR functional screen; type: cell-based; conditions: antagonist mode
T6 construct: Millipore

Y1 = target: T7, Y1 (Homo sapiens, UniProt P25929); experiment: FLIPR functional screen; type: cell-based; conditions: antagonist mode
T7 construct: Millipore

5-HT2B = target: T8, 5-HT2B (Homo sapiens, UniProt P41595); experiment: FLIPR functional screen; type: cell-based; conditions: antagonist mode
T8 construct: purchased Millipore (outsourced screen)

H1 = target: T9, H1 (Homo sapiens, UniProt P35367); experiment: FLIPR functional screen; type: cell-based; conditions: antagonist mode
T9 construct: Millipore

CXCR1 = target: T10, CXCR1 (Homo sapiens, UniProt P25024); experiment: FLIPR functional screen; type: cell-based; conditions: antagonist mode
T10 construct: Millipore

GPR103 = target: T11, GPR103 (Homo sapiens, UniProt Q96P65); experiment: FLIPR functional screen; type: cell-based; conditions: antagonist mode
T11 construct: Millipore

M3 = target: T12, M3 (Homo sapiens, UniProt P20309); experiment: FLIPR functional screen; type: cell-based; conditions: antagonist mode
T12 construct: Millipore

SST4 = target: T13, SST4 (Homo sapiens, UniProt P31391); experiment: FLIPR functional screen; type: cell-based; conditions: antagonist mode
T13 construct: Millipore

ADRB3 = target: T14, ADRB3 (Homo sapiens, UniProt P13945); experiment: FLIPR functional screen; type: cell-based; conditions: antagonist mode
T14 construct: purchased Millipore (outsourced screen)

NTR1 = target: T15, NTR1 (Homo sapiens, UniProt P30989); experiment: FLIPR functional screen; type: cell-based; conditions: antagonist mode
T15 construct: Millipore

5-HT1B = target: T16, 5-HT1B (Homo sapiens, UniProt P28222); experiment: FLIPR functional screen; type: cell-based; conditions: antagonist mode
T16 construct: purchased Millipore (outsourced screen)

CRF1 = target: T17, CRF1 (Homo sapiens, UniProt P34998); experiment: FLIPR functional screen; type: cell-based; conditions: antagonist mode
T17 construct: Millipore

SECRETIN = target: T18, SECRETIN (Homo sapiens, UniProt P47872); experiment: FLIPR functional screen; type: cell-based; conditions: antagonist mode
T18 construct: Millipore

[1] = target: T19, Leukotriene, Cysteinyl CysLT2 (Homo sapiens, UniProt Q9NS75); experiment: Competitive radioligand binding (MDS Pharma)
T19 construct: purchased MDS Pharma (outsourced assay)

OPRD1 = target: T20, OPRD1 (Homo sapiens, UniProt P41143); experiment: FLIPR functional screen; type: cell-based; conditions: antagonist mode
T20 construct: Millipore

Leukotriene, BLT (LTB4) = target: T21, Leukotriene, BLT (LTB4) (Homo sapiens, UniProt Q15722); experiment: Competitive radioligand binding (MDS Pharma)
T21 construct: purchased MDS Pharma (outsourced assay) 250510

CRF2 = target: T22, CRF2 (Homo sapiens, UniProt Q13324); experiment: FLIPR functional screen; type: cell-based; conditions: antagonist mode
T22 construct: Millipore

CCR2B = target: T23, CCR2B (Homo sapiens, UniProt P41597); experiment: FLIPR functional screen; type: cell-based; conditions: antagonist mode
T23 construct: Millipore

LPA1 = target: T24, LPA1 (Homo sapiens, UniProt Q92633); experiment: FLIPR functional screen; type: cell-based; conditions: antagonist mode
T24 construct: Millipore

[2] = target: T25, Prostanoid, Thromboxane A2 (TP) (Homo sapiens, UniProt P21731); experiment: Competitive radioligand binding (MDS Pharma)
T25 construct: purchased MDS Pharma (outsourced assay)

CXCR2 = target: T26, CXCR2 (Homo sapiens, UniProt P25025); experiment: FLIPR functional screen; type: cell-based; conditions: antagonist mode
T26 construct: Millipore

A2B = target: T27, A2B (Homo sapiens, UniProt P29275); experiment: FLIPR functional screen; type: cell-based; conditions: antagonist mode
T27 construct: purchased Millipore (outsourced screen)

CCR9 = target: T28, CCR9 (Homo sapiens, UniProt P51686); experiment: FLIPR functional screen; type: cell-based; conditions: antagonist mode
T28 construct: Millipore

Prostanoid EP4 = target: T29, Prostanoid EP4 (Homo sapiens, UniProt P35408); experiment: Competitive radioligand binding (MDS Pharma)
T29 construct: host or cells: EP4-expressing membrane preparations
Method: Radioligand EP4 binding. The radioligand EP4 binding assay measures displacement of radiolabelled PGE2 from EP4-expressing membrane preparations. Radioligand EP4 binding assay kit was purchased from Millipore, and the assay was performed according to instructions of the manufacture.

BLT1 = target: T30, BLT1 (Homo sapiens, UniProt Q15722); experiment: FLIPR functional screen; type: cell-based; conditions: antagonist mode
T30 construct: Millipore

GABA = target: T31, GABA (Homo sapiens, UniProt Q9UBS5); experiment: FLIPR functional screen; type: cell-based; conditions: antagonist mode
T31 construct: Millipore

MC4 = target: T32, MC4 (Homo sapiens, UniProt P32245); experiment: FLIPR functional screen; type: cell-based; conditions: antagonist mode
T32 construct: Millipore

TP = target: T33, TP (Homo sapiens, UniProt P21731); experiment: FLIPR functional screen; type: cell-based; conditions: antagonist mode
T33 construct: Millipore

BB2 = target: T34, BB2 (Homo sapiens, UniProt P30550); experiment: FLIPR functional screen; type: cell-based; conditions: antagonist mode
T34 construct: Millipore

GPR41 = target: T35, GPR41 (Homo sapiens, UniProt O14843); experiment: FLIPR functional screen; type: cell-based; conditions: antagonist mode
T35 construct: Millipore

SST3 = target: T36, SST3 (Homo sapiens, UniProt P32745); experiment: FLIPR functional screen; type: cell-based; conditions: antagonist mode
T36 construct: Millipore

A3 = target: T37, A3 (Homo sapiens, UniProt P0DMS8); experiment: FLIPR functional screen; type: cell-based; conditions: antagonist mode
T37 construct: purchased Millipore (outsourced screen)

OX1 = target: T38, OX1 (Homo sapiens, UniProt O43613); experiment: FLIPR functional screen; type: cell-based; conditions: antagonist mode
T38 construct: Millipore

T29 sequence (P35408 whole entry): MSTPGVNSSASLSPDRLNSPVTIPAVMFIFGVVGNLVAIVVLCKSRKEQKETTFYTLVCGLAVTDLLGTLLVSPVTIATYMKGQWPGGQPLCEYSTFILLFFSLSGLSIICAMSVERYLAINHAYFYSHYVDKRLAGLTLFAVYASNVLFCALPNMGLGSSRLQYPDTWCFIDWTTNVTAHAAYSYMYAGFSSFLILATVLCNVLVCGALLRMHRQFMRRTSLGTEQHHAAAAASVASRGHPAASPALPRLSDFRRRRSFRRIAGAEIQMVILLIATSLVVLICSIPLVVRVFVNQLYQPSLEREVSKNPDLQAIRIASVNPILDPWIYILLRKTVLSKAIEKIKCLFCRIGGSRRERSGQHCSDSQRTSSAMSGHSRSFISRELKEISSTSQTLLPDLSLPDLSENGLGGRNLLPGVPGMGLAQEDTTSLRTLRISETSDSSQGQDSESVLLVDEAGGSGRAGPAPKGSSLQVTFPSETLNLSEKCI
T21 sequence (Q15722 whole entry): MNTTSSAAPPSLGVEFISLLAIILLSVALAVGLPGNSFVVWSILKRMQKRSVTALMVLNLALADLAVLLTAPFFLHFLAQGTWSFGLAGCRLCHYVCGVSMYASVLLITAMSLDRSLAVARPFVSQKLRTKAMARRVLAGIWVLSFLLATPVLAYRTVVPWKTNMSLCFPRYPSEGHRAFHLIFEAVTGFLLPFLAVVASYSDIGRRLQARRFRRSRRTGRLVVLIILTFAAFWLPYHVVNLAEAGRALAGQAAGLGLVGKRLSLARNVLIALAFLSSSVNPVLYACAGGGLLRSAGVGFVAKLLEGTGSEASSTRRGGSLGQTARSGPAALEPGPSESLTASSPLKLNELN
T25 sequence (P21731 whole entry): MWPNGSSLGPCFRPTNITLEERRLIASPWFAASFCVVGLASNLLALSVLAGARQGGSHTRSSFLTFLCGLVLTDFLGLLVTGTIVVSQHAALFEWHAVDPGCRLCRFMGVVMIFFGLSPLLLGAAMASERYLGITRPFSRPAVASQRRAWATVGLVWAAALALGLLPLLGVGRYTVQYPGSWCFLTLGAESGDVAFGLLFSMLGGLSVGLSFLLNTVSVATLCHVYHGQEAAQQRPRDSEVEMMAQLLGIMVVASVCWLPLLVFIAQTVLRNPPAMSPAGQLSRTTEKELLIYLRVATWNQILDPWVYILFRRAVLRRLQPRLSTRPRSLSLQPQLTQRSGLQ
T19 sequence (Q9NS75 whole entry): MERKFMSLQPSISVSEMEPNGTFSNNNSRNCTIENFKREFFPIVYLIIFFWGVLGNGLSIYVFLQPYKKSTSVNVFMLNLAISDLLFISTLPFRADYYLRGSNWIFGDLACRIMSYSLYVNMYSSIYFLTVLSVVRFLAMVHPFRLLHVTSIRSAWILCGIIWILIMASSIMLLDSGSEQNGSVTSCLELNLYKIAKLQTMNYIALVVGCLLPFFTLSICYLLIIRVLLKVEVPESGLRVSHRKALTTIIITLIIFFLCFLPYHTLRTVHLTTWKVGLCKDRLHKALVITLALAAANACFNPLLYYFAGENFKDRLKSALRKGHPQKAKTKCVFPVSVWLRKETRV
T27 sequence (P29275 whole entry): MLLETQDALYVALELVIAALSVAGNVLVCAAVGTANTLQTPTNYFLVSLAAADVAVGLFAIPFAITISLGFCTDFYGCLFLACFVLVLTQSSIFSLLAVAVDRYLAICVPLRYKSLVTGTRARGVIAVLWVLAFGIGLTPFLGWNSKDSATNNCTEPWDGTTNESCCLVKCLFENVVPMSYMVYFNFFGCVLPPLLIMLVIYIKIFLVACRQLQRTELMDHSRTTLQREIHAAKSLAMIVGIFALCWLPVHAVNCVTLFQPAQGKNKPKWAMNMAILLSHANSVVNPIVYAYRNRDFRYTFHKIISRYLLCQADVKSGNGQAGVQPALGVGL
T18 sequence (P47872 23-440): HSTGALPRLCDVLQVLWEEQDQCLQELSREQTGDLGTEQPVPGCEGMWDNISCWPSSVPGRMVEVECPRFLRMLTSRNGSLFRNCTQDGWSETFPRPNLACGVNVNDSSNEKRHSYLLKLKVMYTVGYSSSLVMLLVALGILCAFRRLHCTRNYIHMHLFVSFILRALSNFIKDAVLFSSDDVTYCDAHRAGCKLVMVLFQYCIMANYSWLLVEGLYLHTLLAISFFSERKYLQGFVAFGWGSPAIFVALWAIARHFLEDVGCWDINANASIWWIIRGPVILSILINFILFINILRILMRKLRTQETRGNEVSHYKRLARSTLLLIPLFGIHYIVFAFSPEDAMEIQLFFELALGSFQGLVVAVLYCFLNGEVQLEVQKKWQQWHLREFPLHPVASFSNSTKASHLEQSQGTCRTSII
T11 sequence (Q96P65 whole entry, species assumed): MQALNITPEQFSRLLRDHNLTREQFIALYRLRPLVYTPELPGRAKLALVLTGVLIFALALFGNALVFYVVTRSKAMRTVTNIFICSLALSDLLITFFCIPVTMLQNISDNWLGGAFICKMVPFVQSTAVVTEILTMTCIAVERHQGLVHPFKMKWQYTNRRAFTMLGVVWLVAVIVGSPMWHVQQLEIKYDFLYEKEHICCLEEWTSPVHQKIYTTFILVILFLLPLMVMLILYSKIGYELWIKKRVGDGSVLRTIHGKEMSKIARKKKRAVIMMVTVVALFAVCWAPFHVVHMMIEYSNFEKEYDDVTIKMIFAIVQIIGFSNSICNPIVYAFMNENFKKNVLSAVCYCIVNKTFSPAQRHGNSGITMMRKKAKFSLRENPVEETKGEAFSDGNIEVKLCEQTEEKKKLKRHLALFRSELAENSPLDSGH
T30 sequence (Q15722 whole entry, species assumed): as the sequence (Q15722 whole entry) above
T14 sequence (P13945 whole entry): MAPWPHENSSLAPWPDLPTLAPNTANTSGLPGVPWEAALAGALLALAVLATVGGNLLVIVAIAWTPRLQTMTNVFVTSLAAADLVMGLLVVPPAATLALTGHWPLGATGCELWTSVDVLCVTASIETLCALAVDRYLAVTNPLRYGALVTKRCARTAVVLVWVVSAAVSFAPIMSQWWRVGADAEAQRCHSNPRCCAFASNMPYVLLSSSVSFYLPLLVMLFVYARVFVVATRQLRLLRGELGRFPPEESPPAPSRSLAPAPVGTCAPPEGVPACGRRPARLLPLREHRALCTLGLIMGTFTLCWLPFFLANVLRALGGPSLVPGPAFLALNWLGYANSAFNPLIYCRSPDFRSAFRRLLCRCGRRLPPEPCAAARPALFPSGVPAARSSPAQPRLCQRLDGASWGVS
T26 sequence (P25025 whole entry, species assumed): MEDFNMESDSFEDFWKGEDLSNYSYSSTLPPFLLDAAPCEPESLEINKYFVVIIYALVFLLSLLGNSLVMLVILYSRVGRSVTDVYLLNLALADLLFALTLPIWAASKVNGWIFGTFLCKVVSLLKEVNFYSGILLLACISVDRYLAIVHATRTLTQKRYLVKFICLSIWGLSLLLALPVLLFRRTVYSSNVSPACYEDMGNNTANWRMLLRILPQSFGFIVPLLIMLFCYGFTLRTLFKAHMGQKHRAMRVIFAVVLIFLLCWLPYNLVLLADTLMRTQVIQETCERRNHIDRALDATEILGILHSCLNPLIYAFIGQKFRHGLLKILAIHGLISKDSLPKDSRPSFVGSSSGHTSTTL
T13 sequence (P31391 whole entry, species assumed): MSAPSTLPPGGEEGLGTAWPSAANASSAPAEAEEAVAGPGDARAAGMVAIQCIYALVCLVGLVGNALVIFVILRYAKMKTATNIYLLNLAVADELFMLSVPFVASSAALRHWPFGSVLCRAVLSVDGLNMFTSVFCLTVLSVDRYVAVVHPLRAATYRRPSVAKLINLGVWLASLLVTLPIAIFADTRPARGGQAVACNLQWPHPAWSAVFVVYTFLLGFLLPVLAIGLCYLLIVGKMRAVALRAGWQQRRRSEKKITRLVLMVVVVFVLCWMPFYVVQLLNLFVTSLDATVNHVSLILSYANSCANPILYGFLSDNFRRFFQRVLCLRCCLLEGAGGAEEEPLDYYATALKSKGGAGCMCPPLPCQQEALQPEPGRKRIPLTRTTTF
T9 sequence (P35367 whole entry): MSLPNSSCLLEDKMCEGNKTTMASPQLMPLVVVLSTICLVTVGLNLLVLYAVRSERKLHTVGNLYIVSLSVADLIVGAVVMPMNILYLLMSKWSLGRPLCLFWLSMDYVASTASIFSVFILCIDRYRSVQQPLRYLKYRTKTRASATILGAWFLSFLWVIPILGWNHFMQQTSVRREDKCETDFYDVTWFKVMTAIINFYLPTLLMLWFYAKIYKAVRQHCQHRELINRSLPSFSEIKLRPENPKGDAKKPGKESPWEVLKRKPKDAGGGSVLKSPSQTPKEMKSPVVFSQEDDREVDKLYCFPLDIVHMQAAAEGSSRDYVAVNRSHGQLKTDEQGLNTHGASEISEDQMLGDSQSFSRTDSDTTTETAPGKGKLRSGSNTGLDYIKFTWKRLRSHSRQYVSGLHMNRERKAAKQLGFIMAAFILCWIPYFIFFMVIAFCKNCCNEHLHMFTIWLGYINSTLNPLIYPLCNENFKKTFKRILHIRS
T24 sequence (Q92633 whole entry, species assumed): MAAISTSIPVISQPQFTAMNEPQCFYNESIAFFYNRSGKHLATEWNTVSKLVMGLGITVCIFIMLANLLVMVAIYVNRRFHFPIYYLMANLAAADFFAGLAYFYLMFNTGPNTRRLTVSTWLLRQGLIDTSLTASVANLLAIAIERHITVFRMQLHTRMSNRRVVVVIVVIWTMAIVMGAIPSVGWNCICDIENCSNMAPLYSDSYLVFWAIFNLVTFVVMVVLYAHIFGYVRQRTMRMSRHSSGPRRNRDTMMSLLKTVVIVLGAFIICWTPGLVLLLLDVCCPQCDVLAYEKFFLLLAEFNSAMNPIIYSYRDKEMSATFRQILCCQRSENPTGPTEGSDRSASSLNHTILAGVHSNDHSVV
T33 sequence (P21731 whole entry): as the sequence (P21731 whole entry) above

`CCN1C(=O)N2Cc3cc(OC)cc(OC)c3[C@@H](C)C=C2C12CCN(Cc1cccn1C)CC2` [ER-819924-01] was tested, and the inhibition at 1 µM (D1) was 14%, the inhibition at 1 µM (V1B) was 4.7% and the inhibition at 1 µM (DP) was -5.8%. It also gave an inhibition at 1 µM (CCK2) of -0.4%, an inhibition at 1 µM (GPR40) of -4.6% and an inhibition at 1 µM (TRH) of -11.1%. It also gave an inhibition at 1 µM (Y1) of -22.7%, an inhibition at 1 µM (5-HT2B) of 11.3% and an inhibition at 1 µM (H1) of -39.3%. It also gave an inhibition at 1 µM (CXCR1) of 3.9%, an inhibition at 1 µM (GPR103) of 0.4% and an inhibition at 1 µM (M3) of 8.9%. The inhibition at 1 µM (SST4) was -2.8%, the inhibition at 1 µM (ADRB3) was 11.4% and the inhibition at 1 µM (NTR1) was 0.5%. It also gave an inhibition at 1 µM (5-HT1B) of 3%, an inhibition at 1 µM (CRF1) of 3.9% and an inhibition at 1 µM (SECRETIN) of 11.3%. For the same compound, the “% INHIBITION” value ([1]; CONC. 0.1 μm) was 3%, the “% INHIBITION” value ([1]; CONC. 1 μm) was 0% and the inhibition at 1 µM (OPRD1) was 5.7%. For the same compound, the “% INHIBITION” value (Leukotriene, BLT (LTB4); CONC. 0.1 μm) was −12%, the “% INHIBITION” value (Leukotriene, BLT (LTB4); CONC. 1 μm) was −11% and the inhibition at 1 µM (CRF2) was -7%. For the same compound, the inhibition at 1 µM (CCR2B) was 3.7%, the inhibition at 1 µM (LPA1) was 8% and the “% INHIBITION” value ([2]; CONC. 0.1 μm) was −3%. The “% INHIBITION” value ([2]; CONC. 1 μm) was −14%, the inhibition at 1 µM (CXCR2) was 1.2% and the inhibition at 1 µM (A2B) was 6.9%. The inhibition at 1 µM (CCR9) was -9.1%, the “% INHIBITION” value (Prostanoid EP4; CONC. 0.1 μm) was 21% and the “% INHIBITION” value (Prostanoid EP4; CONC. 1 μm) was 71%. For the same compound, the “binding selectivity for EP4 over other EP/prostanoid/leukotriene receptors” value (Prostanoid EP4; competitive radioligand binding assay) was “selectively bind to EP4”, the inhibition at 1 µM (BLT1) was 2.2% and the inhibition at 1 µM (GABA) was 6%. The inhibition at 1 µM (MC4) was -5.1%, the inhibition at 1 µM (TP) was 1.8% and the inhibition at 1 µM (BB2) was 0.6%. For the same compound, the inhibition at 1 µM (GPR41) was -7.3%, the inhibition at 1 µM (SST3) was -19.7% and the inhibition at 1 µM (A3) was 10.6%. For the same compound, the inhibition at 1 µM (OX1) was 0.7%.

Reference: patent US20100305098A1, “METHODS OF USE” (priority 2007, published 2010)
